Assay results from PubChem BioAssay (NCI).
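Cultured in 96-well plates, cells were exposed to test compound for 48 hours across five concentrations. TGI marks complete inhibition of growth.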

Tests used:
Experiment in all cases: DTP human tumour cell line panel, 48 h
HCT-15 colon = tested on: HCT-15 colon
NCI-H23 lung = tested on: NCI-H23 lung
SN12C renal = tested on: SN12C renal
SNB-75 CNS = tested on: SNB-75 CNS
NCI-H522 lung = tested on: NCI-H522 lung
SK-MEL-28 melanoma = tested on: SK-MEL-28 melanoma
HCC-2998 colon = tested on: HCC-2998 colon
MCF7 breast = tested on: MCF7 breast
UO-31 renal = tested on: UO-31 renal
K-562 leukemia = tested on: K-562 leukemia
M14 melanoma = tested on: M14 melanoma
SK-MEL-5 melanoma = tested on: SK-MEL-5 melanoma
OVCAR-8 ovarian = tested on: OVCAR-8 ovarian
U251 CNS = tested on: U251 CNS
HCT-116 colon = tested on: HCT-116 colon
HOP-92 NSCLC = tested on: HOP-92 NSCLC
OVCAR-5 ovarian = tested on: OVCAR-5 ovarian
RXF 393 renal = tested on: RXF 393 renal
CCRF-CEM leukemia = tested on: CCRF-CEM leukemia
SK-MEL-2 melanoma = tested on: SK-MEL-2 melanoma
HL-60(TB) leukemia = tested on: HL-60(TB) leukemia
MDA-N = tested on: MDA-N
COLO 205 colon = tested on: COLO 205 colon
SF-539 CNS = tested on: SF-539 CNS
MDA-MB-435 = tested on: MDA-MB-435
T-47D breast = tested on: T-47D breast
RPMI-8226 leukemia = tested on: RPMI-8226 leukemia
A498 renal = tested on: A498 renal
NCI-H460 lung = tested on: NCI-H460 lung
NCI-H226 lung = tested on: NCI-H226 lung
UACC-257 melanoma = tested on: UACC-257 melanoma
SNB-19 CNS = tested on: SNB-19 CNS
OVCAR-3 ovarian = tested on: OVCAR-3 ovarian
NCI/ADR-RES ovarian = tested on: NCI/ADR-RES ovarian
MALME-3M melanoma = tested on: MALME-3M melanoma
MOLT-4 leukemia = tested on: MOLT-4 leukemia
DU-145 prostate = tested on: DU-145 prostate
MDA-MB-231 breast = tested on: MDA-MB-231 breast
OVCAR-4 ovarian = tested on: OVCAR-4 ovarian
EKVX NSCLC = tested on: EKVX NSCLC
SR leukemia = tested on: SR leukemia
IGROV1 ovarian = tested on: IGROV1 ovarian
HOP-62 NSCLC = tested on: HOP-62 NSCLC
SW-620 colon = tested on: SW-620 colon
LOX IMVI melanoma = tested on: LOX IMVI melanoma
HS 578T breast = tested on: HS 578T breast
A549 NSCLC = tested on: A549 NSCLC
SK-OV-3 ovarian = tested on: SK-OV-3 ovarian
ACHN renal = tested on: ACHN renal
KM12 colon = tested on: KM12 colon
786-0 renal = tested on: 786-0 renal
PC-3 prostate = tested on: PC-3 prostate
HT29 colon = tested on: HT29 colon
TK-10 renal = tested on: TK-10 renal
CAKI-1 renal = tested on: CAKI-1 renal
SF-268 CNS = tested on: SF-268 CNS
SF-295 CNS = tested on: SF-295 CNS
UACC-62 melanoma = tested on: UACC-62 melanoma
BT-549 breast = tested on: BT-549 breast

Measured: TGI

C=CCNC(=O)NNC(O)(C(=O)OCC)C(F)(F)F (centres undefined)
not listed: SF-295 CNS | UACC-62 melanoma | BT-549 breast
> 100 µM: all other assays above

Clc1ccc(Cl)c(N=Nc2cc3c4c(c2)CCCN4CCC3)c1
not listed: OVCAR-5 ovarian | BT-549 breast
> 10 µM: all other assays above

COc1c(-c2ccccc2)oc2c(CP(=O)(OC)OC)cccc2c1=O
53.8 µM: RPMI-8226 leukemia
41.9 µM: UO-31 renal
5.11 µM: CAKI-1 renal
not listed: HCT-15 colon | SNB-75 CNS | SK-MEL-28 melanoma | OVCAR-8 ovarian | HOP-92 NSCLC | HL-60(TB) leukemia | NCI-H460 lung | NCI-H226 lung | SNB-19 CNS | NCI/ADR-RES ovarian | OVCAR-4 ovarian | SW-620 colon | LOX IMVI melanoma | HS 578T breast | ACHN renal | KM12 colon | HT29 colon | SF-268 CNS
> 100 µM: all other assays above
